# In patent publication US20230348415A1, “BISPECIFIC ANTAGONISTS OF RETINOL-BINDING PROTEIN 4 THAT STABILIZE TRANSTHYRETIN TETRAMERS, THEIR PREPARATION, AND USE IN THE TREATMENT OF COMMON AGE-RELATED COMORBIDITIES” (The Trustees of Columbia University in the City of New York, priority 2020, published 2023):
# pIC50: −log10 of the molar value. Read-outs that look alike come from different tables or passages of the source.
# Experiments:
# [1] = target: RBP4-TTR interaction (Homo sapiens (Human), UniProt P02753); assay: HTRF RBP4-TTR interaction assay; assay type: biochemical
# Protocol: HTRF Cryptate labeling kit from CisBio (Cisbio, cat #62EUSPEA, Bedfored, MA) was used to label TTR with Eu^3+ Cryptate. The assay was performed in a final assay volume of 16 μl in the buffer that contained 10 mM Tris-HCl pH 7.5, 1 mM DTT, 0.05% NP-40, 0.05% Prionex, 6% glycerol, and 400 mM KF. […] All of the reactions were performed under dim red light in the dark. The plates were read in the SpectraMax M5e Multimode Plate Reader (Molecular Devices, Sunnyvale, CA) after the overnight incubation at 4° C. […] The HTRF signal was expressed as the ratio of fluorescence intensity: Flu668/Flu620×10,000.
# [2] = target: RBP4 (Homo sapiens (Human), UniProt P02753); assay: RBP4 SPA binding assay (displacement of 3H-retinol)
# [3] = target: TTR (Homo sapiens (Human), UniProt P02766); assay: biochemical; assay type: binding; conditions: FITC-coupled TTR FP probe; read-out: TTR FP IC50
# Protocol: Compound binding to TTR was assessed in the fluorescence polarization assay. […] Each well contained 200 nM TTR and 100 nM FITC-diclofenac in the FP buffer (10 mM Tris-HCl pH 7.5, 150 mM NaCl, 0.01% CHAPS, 0.01% Prionex) along with test compounds. Nonspecific binding was determined in the presence of 500 μM unlabeled diclofenac (Sigma-Aldrich). Reactions with test compounds were incubated overnight at 4° C. and FP was measured on SpectramaxM5e plate reader (Molecular Devices).
# [4] = 1 μM retinol, read-out: RBP4-TTR HTRF IC50
# [5] = fixed 10 nM 3H-retinol, read-out: RBP4 SPA IC50
"pIC50 [1, 4]","pIC50 [2, 5]",pIC50 [3],pIC50 [2],pIC50 [1],Compound,pIC50 ([2]; read-out: RBP4 SPA IC50)
4.72,7.21,5.39,–,–,"Cc1cc(C(=O)NC2CC2)nc(N2CCC(COc3ccccc3C(F)(F)F)C2)n1 (racemic) [Compound (±)-102, (±)-N-Cyclopropyl-6-methyl-2-(3-((2-(trifluoromethyl)phenoxy)methyl)pyrrolidin-1-yl)pyrimidine-4-carboxamide]",–
6.27,6.89,5.13,–,–,"Cc1cc(C(=O)O)nc(N2CCC(COc3ccccc3C(F)(F)F)C2)c1 (racemic) [(±)-95, (±)-4-Methyl-6-(3-((2-(trifluoromethyl)phenoxy)methyl)pyrrolidin-1-yl)picolinic Acid]",–
6.35,6.89,< 4.52,–,–,"Cc1cc(C(=O)O)nc(N2CCC(COc3ccccc3C(C)(C)C)C2)n1 (racemic) [Compound (±)-83, (±)-2-(3-((2-(Tert-butyl)phenoxy)methyl)pyrrolidin-1-yl)-6-methylpyrimidine-4-carboxylic Acid]",–
5.89,6.17,5.31,–,–,"O=C(O)c1cccnc1N1CCC(COc2ccccc2C(F)(F)F)C1 (racemic) [Compound (±)-97, (±)-2-(3-((2-(Trifluoromethyl)phenoxy)methyl)pyrrolidin-1-yl)nicotinic Acid]",–
5.64,7.21,< 4.52,–,–,"Cc1cc(C(N)=O)nc(N2CCC(COc3ccccc3C(F)(F)F)C2)n1 (racemic) [Compound (±)-100, (±)-6-Methyl-2-(3-((2-(trifluoromethyl)phenoxy)methyl)pyrrolidin-1-yl)pyrimidine-4-carboxamide]",–
5.43,6.28,< 4.52,–,–,"Cc1cc(C(=O)O)nc(N2CCC(COc3cnccc3C(F)(F)F)C2)n1 (racemic) [Compound (±)-92, (±)-6-Methyl-2-(3-(((4-(trifluoromethyl)pyridin-3-yl)oxy)methyl)pyrrolidin-1-yl)pyrimidine-4-carboxylic Acid]",–
5.89,6.64,4.98,–,–,"Cc1cc(C(=O)O)nc(N2CCC(CSc3ccccc3C(F)(F)F)C2)n1 (racemic) [Compound (±)-71, (±)-6-Methyl-2-(3-(((2-(trifluoromethyl)phenyl)thio)methyl)pyrrolidin-1-yl)pyrimidine-4-carboxylic Acid]",–
–,–,5.73,5.63,–,"O=C(O)c1ccc(F)c(N2CCC(COc3ccccc3C(F)(F)F)C2)c1 (racemic) [(±)-98, (±)-4-Fluoro-3-(3-((2-(trifluoromethyl)phenoxy)methyl)pyrrolidin-1-yl)benzoic Acid]",–
–,–,5.06,< 5.52,–,"Cc1cc(C(=O)O)nc(N2CCC(Oc3ccccc3C(F)(F)F)C2)n1 (racemic) [(±)-27, (±)-6-Methyl-2-(3-(2-(trifluoromethyl)phenoxy)pyrrolidin-1-yl)pyrimidine-4-carboxylic Acid]",–
–,–,5.80,6.59,–,"Cc1cc(C(=O)O)nc(N2CCC3(CCN(c4ccccc4C(F)(F)F)C3)C2)n1 (racemic) [(±)-67, (±)-6-Methyl-2-(7-(2-(trifluoromethyl)phenyl)-2,7-diazaspiro[4.4]nonan-2-yl)pyrimidine-4-carboxylic Acid]",–
5.12,6.05,5.46,–,–,"Cc1cc(C(=O)O)nc(N2CCC(CNc3ccccc3C(F)(F)F)C2)n1 (racemic) [(±)-76, (±)-6-Methyl-2-(3-(((2-(trifluoromethyl)phenyl)amino)methyl)pyrrolidin-1-yl)pyrimidine-4-carboxylic Acid]",–
–,–,4.96,5.78,–,"O=C(O)c1ccnc(N2CCC(COc3ccccc3C(F)(F)F)C2)n1 (racemic) [Compound (±)-94, (±)-2-(3-((2-(Trifluoromethyl)phenoxy)methyl)pyrrolidin-1-yl)pyrimidine-4-carboxylic Acid]",–
–,–,< 4.52,6.68,–,"Cc1cc(C(=O)O)nc(N2CCC(COc3ccccc3C3CCCCC3)C2)n1 (racemic) [Compound (±)-85, (±)-2-(3-((2-Cyclohexylphenoxy)methyl)pyrrolidin-1-yl)-6-methylpyrimidine-4-carboxylic Acid]",–
6.27,6.80,< 4.52,–,–,"Cc1cc(C(=O)O)nc(N2CCC(COc3ccccc3C3CCCC3)C2)n1 (racemic) [Compound (±)-84, (±)-2-(3-((2-Cyclopentylphenoxy)methyl)pyrrolidin-1-yl)-6-methylpyrimidine-4-carboxylic Acid]",–
–,–,4.60,< 5.52,–,"O=C(O)c1cccc(N2CCC(COc3ccccc3C(F)(F)F)C2)n1 (racemic) [Compound (±)-96, (±)-6-(3-((2-(Trifluoromethyl)phenoxy)methyl)pyrrolidin-1-yl)picolinic acid]",–
–,–,4.89,< 5.52,–,"Cc1cc(C(=O)O)nc(N2CCC(OCc3ccccc3C(F)(F)F)C2)n1 (racemic) [(±)-80, (±)-6-Methyl-2-(3-((2-(trifluoromethyl)benzyl)oxy)pyrrolidin-1-yl)pyrimidine-4-carboxylic Acid]",–
6.15,7.09,5.38,–,–,"Cc1cc(C(=O)NS(C)(=O)=O)nc(N2CCC(COc3ccccc3C(F)(F)F)C2)n1 (racemic) [(±)-99, (±)-6-Methyl-N-(methylsulfonyl)-2-(3-((2-(trifluoromethyl)phenoxy)methyl)pyrrolidin-1-yl)pyrimidine-4-carboxamide]",–
–,–,< 4.52,6.18,–,"Cc1cc(C(=O)O)nc(N2CCC(COc3cccnc3C(F)(F)F)C2)n1 (racemic) [Compound (±)-93, (±)-6-Methyl-2-(3-(((2-(trifluoromethyl)pyridin-3-yl)oxy)methyl)pyrrolidin-1-yl)pyrimidine-4-carboxylic Acid]",–
–,–,5.96,6.32,4.82,"Cc1cc(C(=O)O)nc(N2CCCC(COc3ccccc3C(F)(F)F)C2)n1 (racemic) [(±)-62, (±)-6-Methyl-2-(3-((2-(trifluoromethyl)phenoxy)methyl)piperidin-1-yl)pyrimidine-4-carboxylic Acid]",–

Compound,"pIC50 [1, 4]","pIC50 [2, 5]",pIC50 [3],pIC50 [2],pIC50 [1],pIC50 ([2]; read-out: RBP4 SPA IC50)
"Cc1cc(C(=O)O)nc(N2CCC(Oc3ccccc3C(F)(F)F)CC2)n1 [Compound 21, 6-Methyl-2-(4-(2-(trifluoromethyl)phenoxy)piperidin-1-yl)pyrimidine-4-carboxylic Acid]",4.73,5.61,5.40,–,–,–
"Cc1cc(C(=O)O)nc(N2CC[C@@H](COc3ccccc3C(F)(F)F)C2)n1 [Compound (R)-50, (R)-6-Methyl-2-(3-((2-(trifluoromethyl)phenoxy)methyl)pyrrolidin-1-yl)pyrimidine-4-carboxylic Acid]",6.62,–,5.49,–,–,7.19
"Cc1cc(C(=O)O)nc(N2CCC(COc3cc(F)ccc3C(F)(F)F)C2)n1 (racemic) [Compound (±)-88, (±)-2-(3-((5-Fluoro-2-(trifluoromethyl)phenoxy)methyl)pyrrolidin-1-yl)-6-methylpyrimidine-4-carboxylic Acid]",6.52,6.89,4.89,–,–,–
"Cc1cc(C(=O)O)nc(N2CCC(COc3c(F)cccc3C(F)(F)F)C2)n1 (racemic) [Compound (±)-89, (±)-2-(3-((2-Fluoro-6-(trifluoromethyl)phenoxy)methyl)pyrrolidin-1-yl)-6-methylpyrimidine-4-carboxylic Acid]",6.00,6.52,5.72,–,–,–
"Cc1cc(C(=O)O)nc(N2CCC(COc3ccc(F)cc3C(F)(F)F)C2)n1 (racemic) [Compound (±)-87, (W)-2-(3-((4-Fluoro-2-(trifluoromethyl)phenoxy)methyl)pyrrolidin-1-yl)-6-methylpyrimidine-4-carboxylic Acid]",6.06,6.62,5.41,–,–,–
"Cc1cc(C(=O)O)nc(N2CCC(COc3cccc(Cl)c3C(F)(F)F)C2)n1 (racemic) [Compound (±)-86, (k)-2-(3-((3-Chloro-2-(trifluoromethyl)phenoxy)methyl)pyrrolidin-1-yl)-6-methylpyrimidine-4-carboxylic Acid]",–,6.74,5.41,–,–,–
"COc1ccc(C(F)(F)F)c(OCC2CCN(c3nc(C)cc(C(=O)O)n3)C2)c1 (racemic) [Compound (±)-90, (k)-2-(3-((5-Methoxy-2-(trifluoromethyl)phenoxy)methyl)pyrrolidin-1-yl)-6-methylpyrimidine-4-carboxylic Acid]",–,< 5.52,< 4.52,–,–,–
"Cc1cc(C(=O)O)nc(N2CC(Oc3ccccc3C(F)(F)F)C2)n1 [Compound 32, 6-Methyl-2-(3-(2-(trifluoromethyl)phenoxy)azetidin-1-yl)pyrimidine-4-carboxylic Acid]",–,–,4.87,–,–,–
"Cc1cc(C(=O)O)nc(N2CCC(COc3cc(C(F)(F)F)cc(C(F)(F)F)c3)C2)n1 (racemic) [Compound (±)-91, (k)-2-(3-((3,5-Bis(trifluoromethyl)phenoxy)methyl)pyrrolidin-1-yl)-6-methylpyrimidine-4-carboxylic Acid]",–,5.80,< 4.52,–,–,–
